Biological target: human APJ receptor (Homo sapiens (Human), UniProt P35414)
Test: Intracellular cAMP accumulation assay (APJ hcAMP, HTRF)
Assay type: cell-based
Settings: HEK293 cells stably expressing human APJ receptor; inhibition of forskolin-mediated cAMP production; read-out: Human APJ cAMP EC50 Potency range
How it was run: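 HEK293 cells stably expressing human APJ, 5,000 per well, incubated 30 min at rt with compound, […] and 2 μM forskolin. cAMP measured by HTRF against a cAMP standard curve as inhibition of forskolin-driven production. EC50 from variable-slope sigmoidal fit.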

human APJ receptor, sequence (P35414 whole entry): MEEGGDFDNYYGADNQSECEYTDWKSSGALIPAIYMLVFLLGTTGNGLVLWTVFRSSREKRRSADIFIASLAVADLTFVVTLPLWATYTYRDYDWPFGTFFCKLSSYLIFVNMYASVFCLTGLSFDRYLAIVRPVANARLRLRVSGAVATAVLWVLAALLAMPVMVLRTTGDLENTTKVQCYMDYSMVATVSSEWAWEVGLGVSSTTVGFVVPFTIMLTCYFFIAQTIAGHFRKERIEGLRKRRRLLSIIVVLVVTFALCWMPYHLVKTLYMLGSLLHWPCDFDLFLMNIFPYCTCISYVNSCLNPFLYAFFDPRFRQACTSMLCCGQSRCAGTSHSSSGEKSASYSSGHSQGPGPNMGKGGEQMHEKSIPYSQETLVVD

Row | SMILES | EC50
1 | CCCCc1nc(=O)c(S(=O)(=O)[C@H]2CC[C@@H](O)CC2)c(O)n1-c1c(OC)cccc1OC [Example 555, 2-butyl-1-(2,6-dimethoxyphenyl)-6-hydroxy-5-{[(1s,4s)-4-hydroxycyclohexyl]sulfonyl}-1,4-dihydropyrimidin-4-one] | 0.01 to 10 nM
2 | CCCCc1nc(=O)c(S(=O)(=O)[C@H]2CC[C@H](O)CC2)c(O)n1-c1c(OC)cccc1OC [Example 556, 2-butyl-1-(2,6-dimethoxyphenyl)-6-hydroxy-5-{[(1r,4r)-4-hydroxycyclohexyl]sulfonyl}-1,4-dihydropyrimidin-4-one] | 0.01 to 10 nM

Reference: patent US10508104B2, “6-hydroxy-5-(phenyl/heteroarylsulfonyl)pyrimidin-4(1H)-one as APJ agonists” (Bristol-Myers Squibb Company, priority 2016, dated 2019)
